Literature values, collected in patent US9993445B1, “Oral solution comprising atomoxetine hydrochloride and methods thereof” (TAHO Pharmaceuticals Ltd., priority 2016, dated 2018).
Where a name gives a salt, the structure may show the parent alone.

Settings: room temperature

soluble in water: 27.8 mg/mL
Compound: CNCCC(Oc1ccccc1C)c1ccccc1 (single isomer, unassigned; (-)) [Atomoxetine hydrochloride, (−)-N-methyl-3-phenyl-3 (o-tolyloxy) propylamine]
